According to ChEMBL document CHEMBL1201862, “PubChem BioAssay data set” (2004):
Values belong to the compound of their own block, whether it stands above or below them. Calls of active or inactive are those of the source.

Tests used:
[1] = biological target: Hexokinase-1 (Homo sapiens, UniProt P19367); assay: HK1 enzyme activation by HKDC1 hits – biochemical, selectivity assay for HKDC1 activator project, dose response (AID 504762); format: functional
[2] = biological target: T1, Sentrin-specific protease 7 (Homo sapiens, UniProt Q9BQF6); format: functional;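 also: Luminescence-based dose-response confirmation of ultra-high-throughput screening hits, measuring inhibition of SENP7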
T1 sequence (Q9BQF6 whole entry): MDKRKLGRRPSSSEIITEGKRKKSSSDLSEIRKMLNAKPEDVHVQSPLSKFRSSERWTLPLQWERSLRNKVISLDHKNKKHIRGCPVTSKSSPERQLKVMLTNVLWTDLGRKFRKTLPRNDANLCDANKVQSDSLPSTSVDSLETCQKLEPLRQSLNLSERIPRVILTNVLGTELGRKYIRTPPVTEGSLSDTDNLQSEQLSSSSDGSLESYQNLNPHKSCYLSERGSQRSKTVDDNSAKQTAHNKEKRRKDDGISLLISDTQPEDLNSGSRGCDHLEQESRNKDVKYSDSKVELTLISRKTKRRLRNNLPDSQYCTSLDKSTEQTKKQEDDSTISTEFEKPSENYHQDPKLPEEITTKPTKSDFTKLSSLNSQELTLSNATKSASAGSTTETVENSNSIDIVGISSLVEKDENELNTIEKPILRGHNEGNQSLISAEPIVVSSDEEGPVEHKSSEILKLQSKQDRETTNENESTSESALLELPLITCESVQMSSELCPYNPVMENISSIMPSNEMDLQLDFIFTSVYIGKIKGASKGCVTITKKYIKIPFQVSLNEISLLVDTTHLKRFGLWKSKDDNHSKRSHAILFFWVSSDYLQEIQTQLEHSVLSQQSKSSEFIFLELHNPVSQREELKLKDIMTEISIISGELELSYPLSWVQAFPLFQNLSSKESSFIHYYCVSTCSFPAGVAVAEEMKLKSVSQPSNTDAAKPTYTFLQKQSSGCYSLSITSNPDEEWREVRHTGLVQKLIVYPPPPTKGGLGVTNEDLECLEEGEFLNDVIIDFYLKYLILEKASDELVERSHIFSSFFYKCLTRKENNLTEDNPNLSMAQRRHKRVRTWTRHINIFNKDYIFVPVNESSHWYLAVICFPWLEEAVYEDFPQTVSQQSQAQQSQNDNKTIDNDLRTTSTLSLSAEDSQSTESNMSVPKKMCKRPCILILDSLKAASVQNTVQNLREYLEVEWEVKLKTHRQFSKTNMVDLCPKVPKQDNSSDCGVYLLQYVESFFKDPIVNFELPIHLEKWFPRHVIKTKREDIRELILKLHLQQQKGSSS

[3] = biological target: T2, Sentrin-specific protease 6 (Homo sapiens, UniProt Q9GZR1); format: functional;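 also: Luminescence-based dose-response confirmatory assay of SENP6 inhibition, following up an ultra-high-throughput screen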
T2 sequence (Q9GZR1 whole entry): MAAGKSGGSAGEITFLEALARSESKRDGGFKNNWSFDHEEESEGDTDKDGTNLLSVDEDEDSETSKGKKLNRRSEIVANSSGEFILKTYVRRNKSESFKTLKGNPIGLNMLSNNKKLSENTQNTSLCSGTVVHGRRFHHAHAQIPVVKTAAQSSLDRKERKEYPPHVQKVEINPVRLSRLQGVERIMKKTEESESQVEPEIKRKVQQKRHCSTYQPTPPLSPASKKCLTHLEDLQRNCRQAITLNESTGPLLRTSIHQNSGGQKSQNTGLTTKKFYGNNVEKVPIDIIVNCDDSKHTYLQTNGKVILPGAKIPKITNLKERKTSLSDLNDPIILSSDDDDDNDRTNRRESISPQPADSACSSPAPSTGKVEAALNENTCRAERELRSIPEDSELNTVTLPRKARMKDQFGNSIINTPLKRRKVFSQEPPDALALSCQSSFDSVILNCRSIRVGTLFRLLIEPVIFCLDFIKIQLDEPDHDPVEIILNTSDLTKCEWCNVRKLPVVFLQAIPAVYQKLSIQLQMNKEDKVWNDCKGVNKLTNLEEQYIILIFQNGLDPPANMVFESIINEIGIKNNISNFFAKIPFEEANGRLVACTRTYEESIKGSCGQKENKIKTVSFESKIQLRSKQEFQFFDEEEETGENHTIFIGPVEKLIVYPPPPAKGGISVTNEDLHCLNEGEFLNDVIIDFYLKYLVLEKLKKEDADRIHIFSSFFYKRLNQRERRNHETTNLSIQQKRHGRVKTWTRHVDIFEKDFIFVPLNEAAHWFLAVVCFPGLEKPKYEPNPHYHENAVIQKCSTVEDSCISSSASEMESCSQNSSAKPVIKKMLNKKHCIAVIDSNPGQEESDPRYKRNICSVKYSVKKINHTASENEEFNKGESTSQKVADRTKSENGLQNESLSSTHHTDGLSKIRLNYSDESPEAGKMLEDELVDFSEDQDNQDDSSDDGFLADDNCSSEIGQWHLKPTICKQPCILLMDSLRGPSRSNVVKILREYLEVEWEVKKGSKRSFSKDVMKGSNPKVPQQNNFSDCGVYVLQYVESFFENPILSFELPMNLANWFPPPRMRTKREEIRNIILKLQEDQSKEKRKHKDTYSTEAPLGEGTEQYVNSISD

[4] = biological target: Fatty acid synthase (Homo sapiens, UniProt P49327); assay: inhibition of human FAS-TE enzyme activity – biochemical, endpoint fluorescence intensity, uHTS hits, dose response (AID 624327); format: functional;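 also: fluorescence from hydrolysis of an O-methyl fluorescein acyl ester substrate by the enzyme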
[5] = biological target: Polyadenylate-binding protein 1 (Homo sapiens, UniProt P11940); assay: MLLE binding blockers, Cy5 peptide tracer – biochemical, fluorescence polarization, Cy5-PAM2 peptide, secondary, miRNA deadenylation inhibitor project, dose response (AID 602260); format: functional; details: read-out: IC50_Mean
[6] = biological target: Cystic fibrosis transmembrane conductance regulator/Golgi-associated PDZ and coiled-coil motif-containing protein (Homo sapiens, UniProt P13569+Q9HD26); assay: potency against CAL PDZ-peptide interaction – biochemical, fluorescence polarization, Cerulean-tagged CAL PDZ, cherry-picks, dose response (AID 504773)
[7] = system: Vero; assay: viability of Vero cells under compound – cytotoxicity control for flavivirus capping enzyme inhibitors (AID 588742); format: functional; details: Chlorocebus sabaeus
[8] = T. cruzi infection blockers in NIH3T3 cells – beta-gal luminescence, NIH3T3 host cells, confirmation (AID 2630); format: functional, cell-based; details: Mus musculus

Polyadenylate-binding protein 1, sequence (P11940 whole entry): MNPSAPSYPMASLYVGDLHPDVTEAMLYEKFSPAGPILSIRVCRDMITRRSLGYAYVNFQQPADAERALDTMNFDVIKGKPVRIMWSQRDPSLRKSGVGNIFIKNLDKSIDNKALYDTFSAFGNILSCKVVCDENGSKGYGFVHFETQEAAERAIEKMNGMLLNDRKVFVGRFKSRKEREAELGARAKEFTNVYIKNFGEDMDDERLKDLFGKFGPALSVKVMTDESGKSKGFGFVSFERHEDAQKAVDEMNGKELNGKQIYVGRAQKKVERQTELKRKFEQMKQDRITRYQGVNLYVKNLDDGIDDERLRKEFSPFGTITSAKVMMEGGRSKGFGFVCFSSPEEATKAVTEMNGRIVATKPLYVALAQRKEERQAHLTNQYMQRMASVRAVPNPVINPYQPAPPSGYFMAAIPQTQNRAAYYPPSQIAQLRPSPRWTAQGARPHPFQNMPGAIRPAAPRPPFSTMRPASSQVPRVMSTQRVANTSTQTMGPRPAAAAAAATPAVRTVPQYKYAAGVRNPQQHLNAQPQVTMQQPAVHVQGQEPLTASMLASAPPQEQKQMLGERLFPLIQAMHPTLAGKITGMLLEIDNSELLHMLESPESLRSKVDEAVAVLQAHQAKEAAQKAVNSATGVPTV
Fatty acid synthase, sequence (P49327 whole entry): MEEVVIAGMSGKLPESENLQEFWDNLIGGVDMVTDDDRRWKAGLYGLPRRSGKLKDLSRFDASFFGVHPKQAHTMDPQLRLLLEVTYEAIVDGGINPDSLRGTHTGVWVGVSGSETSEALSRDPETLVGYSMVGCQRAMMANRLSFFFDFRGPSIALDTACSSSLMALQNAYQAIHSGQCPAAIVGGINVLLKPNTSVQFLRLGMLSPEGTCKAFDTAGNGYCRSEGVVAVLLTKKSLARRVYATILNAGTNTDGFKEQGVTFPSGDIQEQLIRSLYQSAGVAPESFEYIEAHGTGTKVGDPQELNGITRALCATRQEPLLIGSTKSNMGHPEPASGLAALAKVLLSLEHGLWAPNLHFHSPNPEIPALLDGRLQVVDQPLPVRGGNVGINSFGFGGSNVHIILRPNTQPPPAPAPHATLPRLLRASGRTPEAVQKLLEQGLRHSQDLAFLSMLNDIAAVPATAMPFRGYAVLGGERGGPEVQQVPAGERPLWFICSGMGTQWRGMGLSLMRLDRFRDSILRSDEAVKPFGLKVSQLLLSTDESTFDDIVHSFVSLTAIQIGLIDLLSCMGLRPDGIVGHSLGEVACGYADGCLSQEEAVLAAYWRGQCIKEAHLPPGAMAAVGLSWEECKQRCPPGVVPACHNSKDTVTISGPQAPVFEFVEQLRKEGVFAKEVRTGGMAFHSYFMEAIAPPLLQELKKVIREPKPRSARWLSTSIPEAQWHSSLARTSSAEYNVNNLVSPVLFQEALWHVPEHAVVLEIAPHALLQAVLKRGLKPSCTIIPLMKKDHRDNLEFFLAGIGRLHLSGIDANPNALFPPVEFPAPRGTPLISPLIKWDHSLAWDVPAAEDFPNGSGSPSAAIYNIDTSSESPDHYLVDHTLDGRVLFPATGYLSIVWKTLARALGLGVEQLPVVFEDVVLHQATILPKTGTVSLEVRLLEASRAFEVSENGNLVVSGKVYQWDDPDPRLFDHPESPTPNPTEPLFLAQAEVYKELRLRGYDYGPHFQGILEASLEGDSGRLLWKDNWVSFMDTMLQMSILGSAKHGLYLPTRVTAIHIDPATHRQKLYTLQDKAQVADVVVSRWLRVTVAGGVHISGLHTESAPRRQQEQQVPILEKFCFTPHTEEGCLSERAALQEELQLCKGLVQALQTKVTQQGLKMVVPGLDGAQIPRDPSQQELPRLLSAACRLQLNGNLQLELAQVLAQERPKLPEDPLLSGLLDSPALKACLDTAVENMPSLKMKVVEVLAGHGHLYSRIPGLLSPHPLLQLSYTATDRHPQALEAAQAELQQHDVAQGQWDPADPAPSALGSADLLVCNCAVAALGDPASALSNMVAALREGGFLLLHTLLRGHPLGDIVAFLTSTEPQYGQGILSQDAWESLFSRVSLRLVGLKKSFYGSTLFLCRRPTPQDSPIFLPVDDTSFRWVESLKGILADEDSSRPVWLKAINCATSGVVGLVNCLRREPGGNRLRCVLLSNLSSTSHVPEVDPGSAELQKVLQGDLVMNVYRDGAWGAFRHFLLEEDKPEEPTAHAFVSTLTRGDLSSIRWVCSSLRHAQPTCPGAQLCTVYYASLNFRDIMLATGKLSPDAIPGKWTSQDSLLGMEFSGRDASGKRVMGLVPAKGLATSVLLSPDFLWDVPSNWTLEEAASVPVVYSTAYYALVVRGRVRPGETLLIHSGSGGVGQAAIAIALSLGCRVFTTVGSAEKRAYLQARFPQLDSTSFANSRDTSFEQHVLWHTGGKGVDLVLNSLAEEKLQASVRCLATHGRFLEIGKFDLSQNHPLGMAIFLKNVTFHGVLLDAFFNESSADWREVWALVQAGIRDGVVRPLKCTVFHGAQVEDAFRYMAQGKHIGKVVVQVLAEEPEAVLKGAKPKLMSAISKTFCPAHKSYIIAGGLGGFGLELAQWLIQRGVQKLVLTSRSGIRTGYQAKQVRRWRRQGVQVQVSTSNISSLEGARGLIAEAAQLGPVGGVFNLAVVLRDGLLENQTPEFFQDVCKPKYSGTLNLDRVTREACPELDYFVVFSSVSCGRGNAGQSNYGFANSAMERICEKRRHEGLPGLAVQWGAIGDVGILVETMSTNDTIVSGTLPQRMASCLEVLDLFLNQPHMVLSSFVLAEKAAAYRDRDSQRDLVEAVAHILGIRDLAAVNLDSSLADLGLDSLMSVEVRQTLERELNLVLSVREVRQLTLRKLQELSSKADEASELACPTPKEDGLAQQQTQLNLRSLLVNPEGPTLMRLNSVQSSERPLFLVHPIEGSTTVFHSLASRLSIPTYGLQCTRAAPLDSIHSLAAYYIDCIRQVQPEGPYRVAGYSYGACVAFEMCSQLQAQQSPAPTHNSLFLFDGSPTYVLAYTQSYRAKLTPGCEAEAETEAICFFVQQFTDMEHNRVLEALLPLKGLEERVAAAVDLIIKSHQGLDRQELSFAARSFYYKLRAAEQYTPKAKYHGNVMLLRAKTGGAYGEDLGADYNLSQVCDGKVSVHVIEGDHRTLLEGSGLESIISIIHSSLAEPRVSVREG
Cystic fibrosis transmembrane conductance regulator/Golgi-associated PDZ and coiled-coil motif-containing protein, sequence (P13569 whole entry, other chains not shown): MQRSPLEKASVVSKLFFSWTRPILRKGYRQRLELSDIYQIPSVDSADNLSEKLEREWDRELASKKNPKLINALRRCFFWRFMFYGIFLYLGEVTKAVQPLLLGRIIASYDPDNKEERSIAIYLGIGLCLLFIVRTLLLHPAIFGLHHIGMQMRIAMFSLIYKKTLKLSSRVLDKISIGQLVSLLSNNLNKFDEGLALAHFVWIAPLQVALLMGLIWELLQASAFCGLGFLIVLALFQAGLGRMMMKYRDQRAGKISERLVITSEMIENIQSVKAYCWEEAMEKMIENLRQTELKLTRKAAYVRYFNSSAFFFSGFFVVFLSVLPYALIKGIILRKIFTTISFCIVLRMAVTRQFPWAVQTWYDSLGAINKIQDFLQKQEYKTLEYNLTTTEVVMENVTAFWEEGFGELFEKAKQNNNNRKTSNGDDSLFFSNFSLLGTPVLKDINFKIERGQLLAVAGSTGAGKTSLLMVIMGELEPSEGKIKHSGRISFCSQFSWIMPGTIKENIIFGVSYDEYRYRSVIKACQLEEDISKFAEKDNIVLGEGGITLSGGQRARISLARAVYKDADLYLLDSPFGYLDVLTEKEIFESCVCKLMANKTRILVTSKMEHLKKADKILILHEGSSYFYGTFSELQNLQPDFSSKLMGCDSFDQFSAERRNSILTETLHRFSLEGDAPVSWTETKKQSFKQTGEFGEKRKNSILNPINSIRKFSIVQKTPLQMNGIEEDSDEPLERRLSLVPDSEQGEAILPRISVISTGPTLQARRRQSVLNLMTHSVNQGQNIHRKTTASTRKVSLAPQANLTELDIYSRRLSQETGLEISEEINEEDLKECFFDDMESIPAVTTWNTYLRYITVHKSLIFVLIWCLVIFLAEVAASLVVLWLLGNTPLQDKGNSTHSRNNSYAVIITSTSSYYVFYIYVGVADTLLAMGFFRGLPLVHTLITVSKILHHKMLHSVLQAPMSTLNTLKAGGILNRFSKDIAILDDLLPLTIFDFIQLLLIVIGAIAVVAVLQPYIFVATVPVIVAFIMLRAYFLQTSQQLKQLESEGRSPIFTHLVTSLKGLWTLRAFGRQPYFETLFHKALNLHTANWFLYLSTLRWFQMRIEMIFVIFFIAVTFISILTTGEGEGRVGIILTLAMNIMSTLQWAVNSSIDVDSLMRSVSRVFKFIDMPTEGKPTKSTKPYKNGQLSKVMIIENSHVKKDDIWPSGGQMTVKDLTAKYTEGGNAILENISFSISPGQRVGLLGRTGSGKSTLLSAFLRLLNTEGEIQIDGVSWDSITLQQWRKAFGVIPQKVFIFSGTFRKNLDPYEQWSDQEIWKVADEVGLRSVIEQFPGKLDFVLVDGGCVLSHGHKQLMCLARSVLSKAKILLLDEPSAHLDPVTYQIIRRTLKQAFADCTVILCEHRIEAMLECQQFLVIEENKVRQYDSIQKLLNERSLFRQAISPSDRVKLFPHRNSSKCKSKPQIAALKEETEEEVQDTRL

EC50 [1]: 37.9 µM (inactive) | IC50 [2]: 25.4 µM (active) | IC50 [3]: 14.1 µM (active)
Compound: O=C1NC(=S)N/C1=C/c1cc2c(cc1[N+](=O)[O-])OCO2

Compound: Cc1ccc(NC(=O)C2=C(c3ccccc3)S(=O)(=O)CCS2(=O)=O)cc1
IC50 [4]: 3.96 µM (active)

Compound: O=C(O)CSc1cc(NS(=O)(=O)c2ccc(Br)cc2)c2ccccc2c1O
IC50 [5]: > 66 µM (inactive) | AC50 [6]: 28.4 µM (active) | CC50 [7]: 34 µM (active)

Compound: O=C(CNc1cccc2ccccc12)N/N=C/c1ccc([N+](=O)[O-])o1
EC50 [8]: 0.022 µM (active)
